Consider 30 molecules from patent US20120065195A1, “COMPOUNDS FOR TREATING NEURODEGENERATIVE DISEASES” (priority 2010, published 2012).

The target of this experiment is T1, BACE1 (Homo sapiens, UniProt P56817).
T1 construct: endogenous in cells; host or cells: HEK-293 (stably transfected with wild type APP695 only)
As to the kind of experiment: Cellular BACE1 Inhibition Assay (in vitro cellular Amyloidβ 1-40 production assay, HTRF immunoassay). It counts as cell-based. The method, then: The BACE inhibition properties of the compounds of the invention may be determined by the following in vitro cellular Amyloidβ 1-40 production assay.
Inhibition of Amyloidβ1-40 production was determined by incubating cells with compound for 48 hours and quantifying the level of Amyloidβ 1-40 using an HTRF immunoassay.
Materials and Methods: HEK-293 cells stably transfected with a DNA construct containing the coding sequence for the wild type APP695 sequence were grown in DMEM supplemented with 10% fetal bovine serum, penicillin/streptomycin and 150 μg/mL G418. Cells were plated in 96-well plates at 35,000 cells/well and allowed to attach for 8-12 hours. Media was changed to DMEM supplemented with 10% fetal bovine serum, penicillin/streptomycin 15 minutes prior to compound addition. Diluted compounds were then added at a final concentration of 0.5% DMSO. After 48 hours, 4 μL of media from each well was added to a corresponding well of a 384 well plate (Perkin Elmer Cat#6008280) containing the HTRF reagents. HTRF reagents were obtained from the CisBio Amyloidβ 1-40 peptide assay kit (Cat#62B40PEC) and were prepared as follows anti-peptide β (1-40)-Cryptate and anti-peptide β (1-40)-XL655 were stored in 2 plate aliquots at −80° C. Diluent and Reconstitution buffer were stored at 4° C. Aliquots of the two antibodies were diluted 1:100 with Reconstitution buffer, and this mixture was diluted 1:2 with Diluent. 12 μL of the reagent mixture was added to the required wells of the 384 well assay plate. The assay plate was incubated at 4° C. for 17 hours and then analyzed for fluorescence at 665 and 620 nm.
(TR-FRET usually uses a lanthanide donor and a delayed reading to cut background.)

T1 sequence (P56817 46-501): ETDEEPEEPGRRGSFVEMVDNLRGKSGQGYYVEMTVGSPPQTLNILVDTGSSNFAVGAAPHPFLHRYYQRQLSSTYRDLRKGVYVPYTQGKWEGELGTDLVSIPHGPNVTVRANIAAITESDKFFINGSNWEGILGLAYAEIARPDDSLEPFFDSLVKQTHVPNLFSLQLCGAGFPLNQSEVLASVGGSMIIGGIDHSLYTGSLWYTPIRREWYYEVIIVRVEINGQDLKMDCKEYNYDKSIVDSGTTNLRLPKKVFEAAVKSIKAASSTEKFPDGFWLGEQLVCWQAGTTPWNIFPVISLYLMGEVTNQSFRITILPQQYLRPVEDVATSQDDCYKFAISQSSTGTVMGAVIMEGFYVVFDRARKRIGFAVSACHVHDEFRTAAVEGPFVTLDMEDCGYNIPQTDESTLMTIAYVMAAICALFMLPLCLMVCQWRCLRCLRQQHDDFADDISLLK

For orientation: IC50 means the concentration that gives 50% inhibition. In the case of `CC1CCc2ccc(-c3cccc(Cl)c3)cc2C12N=C(N)N(C)C2=O` (stereo not drawn) [Example 21, 2-amino-7′-(3-chlorophenyl)-1,2′-dimethyl-3′,4′-dihydro-2′H-spiro[imidazole-4,1′-naphthalen]-5(1H)-one], the concentration for half-maximal inhibition (IC50) was found to be 226 nM.

For `CN1C(=O)C2(CC3(CCOCC3)Cc3ccc(-c4cc(F)cc(Cl)c4)cc32)N=C1N` (stereo not drawn) [Example 42, 2-amino-7″-(3-fluoro-5-chlorophenyl)-1-methyl-2′,3′,5′,6′-tetrahydro-3″,4″-dihydro-2″H-dispiro[imidazol-4,1″-naphthalen-3″,4′-pyran]-5(1H)-one], 121 nM corresponded to half-maximal inhibition (IC50). Turning to `COc1ccnc(-c2ccc3c(c2)C2(CC(C)(C)C3)N=C(N)N(C)C2=O)c1` (stereo not drawn) [Example 137, 2-amino-7′-(4-methoxypyridin-2-yl)-1,3′,3′-trimethyl-3′,4′-dihydro-2′H-spiro[imidazole-4,1′-naphthalen]-5(1H)-one], the half-inhibitory concentration (IC50) is 6.1 nM. Take `CN1C(=O)C2(CCCc3ccc(-c4cccc(Cl)c4)cc32)N=C1N` (stereo not drawn) [Example 24, 2-amino-7′-(3-chlorophenyl)-1-methyl-3′,4′-dihydro-2′H-spiro[imidazole-4,1′-naphthalen]-5(1H)-one]: it took 189 nM to reach half-maximal inhibition (IC50).

`CN1C(=O)C2(N=C1N)c1cc(-c3cncc(Cl)c3)ccc1CCC2(C)C` (stereo not drawn) [Example 26, 2-amino-7′-(5-chloropyridin-3-yl)-1,2′,2′-trimethyl-3′,4′-dihydro-2′H-spiro[imidazole-4,1′-naphthalen]-5(1H)-one] displayed an IC50 of 19.7 nM. With `CN1C(=O)[C@]2(C[C@@](C)(Cc3ccccc3)Cc3ccc(-c4cncc(Cl)c4)cc32)N=C1N` [Example 147, (1′R,3′S)-2-amino-3′-benzyl-7′-(5-chloropyridin-3-yl)-1,3′-dimethyl-3′,4′-dihydro-2′H-spiro[imidazole-4,1′-naphthalen]-5(1H)-one], it took 1.3 nM to reach half-maximal inhibition (IC50). `CC1CCc2ccc(-c3cc(F)cc(Cl)c3)cc2C12N=C(N)N(C)C2=O` (stereo not drawn) [Example 56, 2-amino-7′-(3-chloro-5-fluorophenyl)-1,2′-dimethyl-3′,4′-dihydro-2′H-spiro[imidazole-4,1′-naphthalen]-5(1H)-one]: the IC50 turned out to be 361 nM. Compared with the last molecule, the IC50 is about 280-fold higher. Regarding `CN1C(=O)C2(CCCc3ccc(-c4cncnc4)cc32)N=C1N` (stereo not drawn) [Example 25, 2-Amino-1-methyl-7′-(pyrimidin-5-yl)-3′,4′-dihydro-2′H-spiro[imidazole-4,1′-naphthalen]-5(1H)-one], the IC50 stood at 104 nM. This IC50 lies about 3.5-fold lower than the previous one. `CN1C(=O)C2(CC3(CCOCC3)Cc3ccc(/C=C/C(C)(C)C)cc32)N=C1N` (stereo not drawn) [Example 45, (E)-2-amino-7″-(3,3-dimethylbut-1-enyl)-1-methyl-2′,3′,5′,6′-tetrahydro-3″,4″-dihydro-2″H-dispiro[imidazol-4,1″-naphthalen-3″,4′-pyran]-5(1H)-one] registered an IC50 of 69.6 nM. Consider `CN1C(=O)[C@]2(N=C1N)c1cc(-c3cncnc3)ccc1C[C@]1(C)CC12` (single isomer, unassigned) [Example 155], for which half-maximal inhibition (IC50) required 27.1 nM.

`CN1C(=O)C2(CC(C)(C)Cc3ccc(-c4cc(C(F)(F)F)ccn4)cc32)N=C1N` (stereo not drawn) [Example 139, 2-amino-1,3′,3′-trimethyl-7′-(4-(trifluoromethyl)pyridin-2-yl)-3′,4′-dihydro-2′H-spiro[imidazole-4,1′-naphthalen]-5(1H)-one] gave a half-inhibitory concentration (IC50) of 14.8 nM.

Turning to `CN1C(=O)C2(CC(C)(C)Cc3ccc(-c4cccc(Cl)c4)nc32)N=C1N` (stereo not drawn) [Example 20, 2-amino-2′-(3-chlorophenyl)-1,6′,6′-trimethyl-6′,7′-dihydro-5′H-spiro[imidazole-4,8′-quinolin]-5(1H)-one], the IC50 amounted to 1430 nM. `CN1C(=O)C2(N=C1N)c1cc(-c3cncnc3)ccc1CC(C)(C)C2F` (stereo not drawn) [Example 157, 2-amino-2′-fluoro-1,3′,3′-trimethyl-7′-(pyrimidin-5-yl)-3′,4′-dihydro-2′H-spiro[imidazole-4,1′-naphthalen]-5(1H)-one] showed an IC50 of 39.6 nM. Turning to `CN1C(=O)C2(N=C1N)c1cc(-c3cccnc3F)ccc1CC(C)(C)C2(F)F` (stereo not drawn) [Example 159, 2-amino-2′,2′-difluoro-7′-(2-fluoropyridin-3-yl)-1,3′,3′-trimethyl-3′,4′-dihydro-TH-spiro[imidazole-4,1′-naphthalen]-5(1H)-one], the IC50 came out at 26.1 nM. In the case of `CN1C(=O)C2(N=C1N)c1cc(-c3cncc(Cl)c3)ccc1CC(C)(C)C2F` (stereo not drawn) [Example 158, 2-amino-7′-(5-chloropyridin-3-yl)-2′-fluoro-1,3′,3′-trimethyl-3′,4′-dihydro-2′H-spiro[imidazole-4,1′-naphthalen]-5(1H)-one], the IC50 was determined as 6.7 nM. With `CN1C(=O)C2(CC(C)(C)Cc3ccc(C#CC4CC4)cc32)N=C1N` (stereo not drawn) [Example 17, 2-amino-7′-(cyclopropylethynyl)-1,3′,3′-trimethyl-3′,4′-dihydro-2′H-spiro[imidazole-4,1′-naphthalen]-5(1H)-one], it took 81.9 nM to reach half-maximal inhibition (IC50). `CN1C(=O)CC2(CC(C)(C)Cc3ccc(-c4cccnc4F)cc32)N=C1N` (stereo not drawn) [Example 96, 2′-amino-7-(2-fluoropyridin-3-yl)-1′,3,3-trimethyl-3,4-dihydro-1′H,2H-spiro[naphthalene-1,4′-pyrimidin]-6′(5′H)-one] registered a half-inhibitory concentration (IC50) of 1320 nM. Then `Cc1nc(C(=O)Nc2ccc3c(c2)C2(COC(N)=N2)CC(C)(C)C3)co1` (stereo not drawn) [Example 90, N-(2′-amino-3-dimethyl-3,4-dihydro-2H,5′H-spiro[naphthalene-1,4′-oxazole]-7-yl)-2-methyloxazole-4-carboxamide], with 16.8 nM; and `CC1CCc2ccc(-c3cccc(OC(F)F)c3)cc2C12N=C(N)N(C)C2=O` (stereo not drawn) [Example 57, 2-amino-7′-(3-(difluoromethoxy)phenyl)-1,2′-dimethy1-3′,4-dihydro-2′H-spiro[imidazole-4,1′-naphthalen]-5(1H)-one], with 363 nM; and `CN1C(=O)C2(N=C1N)c1cc(-c3cccc(Cl)c3)ccc1CCC21CCOCC1` (stereo not drawn) [Example 35, 2-amino-7″-(3-chlorophenyl)-1-methyl-2′,3′,5′,6′-tetrahydro-3″,4″-dihydro-2″H-dispiro[midazol-4,1″-naphthalen-2″,4′-pyran]-5(1H)-one], with 192 nM. Then `CN1C(=O)C2(N=C1N)c1cc(-c3cncnc3)ccc1CC(C)(C)C2(F)F` (stereo not drawn) [Example 160, 2-amino-2′,2′-difluoro-1,3′,3′-trimethyl-7′-(pyrimidin-5-yl)-3′,4′-dihydro-2′H-spiro[imidazole-4,1′-naphthalen]-5(1H)-one], with 87.3 nM; and `Cc1cncc(-c2ccc3c(c2)C2(CC(C)(C)C3)N=C(N)N(C)C2=O)c1` (stereo not drawn) [Example 131, 2-amino-1,3′,3′-trimethyl-7′-(5-methylpyridin-3-yl)-3′,4′-dihydro-2′H-spiro[imidazole-4,1′-naphthalen]-5 (1H)-one], with 5.1 nM. In turn, `CN1C(=O)[C@@]2(N=C1N)c1cc(-c3cccc(Cl)c3)ccc1CC[C@H]2CC1CCN(CC(F)F)CC1` [Example 32, (1′S,2′S)-2-amino-7′-(3-chlorophenyl)-2′-((1-(2,2-difluoroethyl)piperidin-4-yl)methyl)-1-methyl-3′,4′-dihydro-2′H-spiro[imidazole-4,1′-naphthalen]-5(1H)-one] gave a half-inhibitory concentration (IC50) of 48.6 nM. As to `Cc1cc(C(=O)Nc2ccc3c(c2)C2(CCSC(N)=N2)CC(C)(C)C3)c(C)o1` (stereo not drawn) [Example 95, N-(2′-amino-3,3-dimethyl-3,4,5′,6′-tetrahydro-2H-spiro[naphthalene-1,4′-[1,3]thiazine]-7-yl)-2,5-dimethylfuran-3-carboxamide], half-maximal inhibition (IC50) was put at 276 nM. The same measure for `CN1C(=O)C2(CC(C)(C)Cc3ccc(-c4cncc(C#N)c4)cc32)N=C1N` (stereo not drawn) [Example 134, 5-(2-amino-1,3′,3′-trimethyl-5-oxo-1,3′,4′,5-tetrahydro-2′H-spiro[imidazole-4,1′-naphthalene]-7′-yl)nicotinonitrile]: 7.9 nM. Molecule `Cc1cnc(F)c(-c2ccc3c(c2)C2(CC(C)(C)C3)N=C(N)N(C)C2=O)c1` (stereo not drawn) [Example 135, 2-amino-7′-(2-fluoro-5-methylpyridin-3-yl)-1,3′,3′-trimethyl-3′,4′-dihydro-2′H-spiro[imidazole-4,1′-naphthalen]-5(1H)-one] displayed a concentration for half-maximal inhibition (IC50) of 8.1 nM. This IC50 and that of the molecule before are within 1.5-fold of each other.

`CC1(C)Cc2ccc(NC(=O)c3ccc(Br)cn3)cc2C2(COC(N)=N2)C1` (stereo not drawn) [Example 88, N-(2′-amino-3,3-dimethyl-3,4-dihydro-2H,5′H-spiro[naphthalene-1,4′-oxazole]-7-yl)-5-bromopicolinamide] registered an IC50 of 46.3 nM. On to `CN1C(=O)C2(CC(C)(C)Cc3ccc(C#CCCCC#N)cc32)N=C1N` (stereo not drawn) [Example 18, 6-(2-amino-1,3′,3′-trimethyl-5-oxo-1,3′,4′,5-tetrahydro-2′H-spiro[imidazole-4,1′-naphthalene]-7′-yl)hex-5-ynenitrile], for which it took 37.4 nM to reach half-maximal inhibition (IC50).

In turn, `CC(C)CCc1ccc2c(c1)C1(N=C(N)N(C)C1=O)C(C)CC2` (stereo not drawn) [Example 22] gave an IC50 of 264 nM. As for `CN1C(=O)C2(CC3(CCOCC3)Cc3ccc(-c4cncnc4)cc32)N=C1N` (stereo not drawn) [Example 74, 2-amino-7″-(pyrimidin-5-yl)-1-methyl-2′,3′,5′,6′-tetrahydro-3″,4″-dihydro-2″H-dispiro[imidazol-4,1″- naphthalen-3″,4′-pyran]-5(1H)-one], half-maximal inhibition (IC50) was put at 258 nM. The IC50 values of the last two molecules are within 1.5-fold of each other.
